Experimental data published in patent EP0249561B1, “Compositions using liposome-encapsulated non-steroidal anti-inflammatory drugs” (THE LIPOSOME COMPANY, INC., priority 1986, dated 1987).

What was measured:
[1] = generally shown by others, cited from earlier work; for half-lives: range for the group
rat stomach mucosa = settings: rats dosed with the prostaglandin; cited from earlier work
female Wistar rats = test: Acute carageenan paw edema model, paw volume by plethysmometer (Control 2 / Example 3); type: in vivo; settings: indomethacin 2 mg/kg oral, 30 minutes before carageenan, paw volume 2.5 hours after carageenan
Protocol: Eight female Wistar rats weighing approximately 100 grams were allowed free access to food and water. A tatoo line was inscribed onto the right rear paw just below the hair line. Initial paw volume was measured by a transducer-linked plethysmometer (Stoelting Co., Chicago, Illinois) which contained a saline solution. The instrument measures paw volumes by an electrical charge difference across two electrodes resulting from the volume displacement by the paw. A transducer corrects this charge difference into cubic centimeters of volume displaced. Following immersion of the paw in the perspex cell to the inscribed line, a direct measurement of the displacement volume was recorded. Rats were orally dosed with 2 mg/kg body weight of indomethacin in polyethylene glycol 400. At 30 minutes post treatment, rats received an injection of 0.1 ml of 1.5% carageenan in saline […] directly into the rear paw pad. The paw volume was again determined 2.5 hours after the carageenan administration. The edema intensity (EI) was calculated: [formula] and averaged for the eight rats. The paw volumes for the eight rats were averaged and the percent swelling inhibition was calculated: % swelling Reduction: [formula] […] Rats were orally dosed with the liposomes, and percent swelling reduction was calculated as in Example 2.

male Wistar rats = test: Acute ulceration after one oral dose of indomethacin, ulcer lengths counted in excised stomachs (Control 1 / Example 2); type: in vivo; settings: indomethacin 10 mg/kg, starved rats, 4 hours after dosing
Protocol: Twenty 225-250 g male Wistar rats were starved for 18-24 hours prior to dosing. Rats were allowed access to water throughout the study. Ten rats in the free drug control group were then administered one oral dose of indomethacin, dissolved in polyethylene glycol 400 at 7 mg/ml and administered at 10 mg/kg body weight of indomethacin.
Four hours following dosing, rats were sacrificed by carbon dioxide anoxia and their stomachs surgically removed by severing at the cardiac and pyloric sphinctors. The stomachs were opened along the lesser curve, flattened, and washed with saline. Ulcer lengths were counted under a dissecting microscope (American Optical, Buffalo, NY) equipped with an eyepiece micrometer, and lengths were summed and averaged for all animals in a single treatment group.
Ulcer protection was assessed by summing and averaging ulcer lengths (in mm) of the treated group and comparing the value to that of the group administered free drug […]. Percent ulcer inhibition was calculated by dividing the average length of ulceration of the liposome-treated group by the of the corresponding free drug group, and multiplying by 100.
The procedures and materials of Example 1 were employed using 10 mg/kg body weight of indomethacin entrapped in stable plurilamellar vesicles (SPLVs) composed of digalactosyl diglyceride; ulcer protection was assessed as in Example 1.

rats (Wistar) [2] = test: Inducing intestinal ulceration (chronic), 4-day oral dosing (Control 4); type: in vivo; settings: about 4 mg/kg daily oral over 4 days
Protocol: Single daily oral dosages of indomethacin at about 4 mg/kg in vehicle or in monophasic vesicles were administered over 4 days. Test animals in this example were rats (Wistar). On the fifth day the full length of the intestines were excised and slit open opposite to the attached mesenteric issue. The mucosal surface was rinsed with saline, the ulcers (including perforations) were quantitated in millimeters as described about or by determination of total surface area of lesions. This was accomplished by means of a planimeter (Zidas, Carl Zeiss, West Germany) optically linked to an SR stereo dissecting microscope (Zeiss) with a draw tube attachment. In this example results were expressed as total mm² of ulcerated surface and as percent inhibition of ulceration when treatment was provided. Average values were calculated based upon a minimum of 5 animals per group from at least duplicate experiments. […] Sham vehicle, however, were nontoxic to the animals. Clearly this method is easily adaptable by those skilled in the art to other nonsteroidal anti-inflammatory therapeutic agents and other animals.

rats (Wistar) [3] = test: Inducing gastric ulcers (acute), oral administration (Control 3); type: in vivo; settings: for mm Ulceration + SEM: acute oral, 4 hours
Description: For oral studies, it is convenient to use indomethacin but other nonsteroidal anti-inflammatory therapeutic agent can be similarly employed. This model is also useful in examining other nonsteroidal anti-inflammatory therapeutic agents and other mammals. Simply varying doses will induct gastric ulcers for other agents and mammals in this model. Unlike gastric ulcer protocols, it has been shown that for nonsteroidal anti-inflammatory effects such as indomethacin-induced intestinal lesions to occur, animals must be allowed free acces to food and water during the study.
Indomethacin at dosages between about 2 mg/kg and 10 mg/kg were given in 0.5 ml of neat PEG-400, vehicle or as incorporated into the liposomes at a 200 mg/kg dosage of phospholipid. Four hours following oral administration of test formulations, animals were sacrificed by CO₂ anoxia and the stomachs were excised. For systemically-induced gastric ulceration, dosages of PEG-400 solubilized indomethacin between 4 mg/kg and 50 mg/kg in 0.5 ml were administered subcutaneously. […] Tissue was thoroughly rinsed in saline and the inner mucosal surface was laid flat for microscopic evaluation. Visible ulcers were quantitated using a dissecting microscope (AO Optical, Buffalo, NY) equipped with an eyepiece micrometer. Results using this test were expressed in millimeters of ulceration and in percent inhibition of ulcers where treatment was effected. For all studies, a minimum of 10 animals per experimental group were employed. Experiments were conducted in triplicate, thereby representing a minimum of 30 rats per group.

Compound	blood level half-lives [1]	half-lives [1]	other results
CC(=O)Oc1ccccc1C(=O)O [acetylsalicylic, Acetylsalicylic Acid (ASA)]	under four		
Cc1cccc(Nc2ccccc2C(=O)O)c1C [Mefenamic acid]	about four		
O=C(O)Cc1ccccc1Nc1c(Cl)cccc1Cl [diclofenac]	under four		
CC1=C(CC(=O)O)c2cc(F)ccc2/C1=C\c1ccc([S+](C)[O-])cc1 (stereo not shown) [sulindac]		over ten hours to three days	
CN1C(C(=O)Nc2ccccn2)=C(O)c2ccccc2S1(=O)=O [piroxicam]		over ten hours to three days	
Cc1ccc(C(=O)c2ccc(CC(=O)O)n2C)cc1 [tolmetin]	under four		
Prostaglandin E₂			increase in the major gastric surface protective surfactant (rat stomach mucosa): 2-6 fold
Cc1ccc(Cl)c(Nc2ccccc2C(=O)O)c1Cl [meclofenamate]	under four		
CCCCC1C(=O)N(c2ccccc2)N(c2ccccc2)C1=O [phenylbutazone]		over ten hours to three days	
O=C(O)c1cc(-c2ccc(F)cc2F)ccc1O [diflunisal]		over ten hours to three days	
COc1ccc2c(c1)c(CC(=O)O)c(C)n2C(=O)c1ccc(Cl)cc1 [Indomethacin in PEG-400, indomethacin]	under four		% SWELLING REDUCTION (female Wistar rats): 37.2%; mm ULCERATION (male Wistar rats): 43.9 mm; mortality rate (rats (Wistar) [2]): 20-30%; total ulcer length, high reached in individual experiments (rats (Wistar) [3]; 10 mg indomethacin/kg body weight, P.O.): 45 mm; mm Ulceration + SEM (rats (Wistar) [3]; indomethacin 2 mg/kg): 1.1 ± 0.3 mm; mm Ulceration + SEM (rats (Wistar) [3]; indomethacin 4 mg/kg): 3.4 ± 0.8 mm; mm Ulceration + SEM (rats (Wistar) [3]; indomethacin 6 mg/kg): 9.7 ± 1.2 mm; mm Ulceration + SEM (rats (Wistar) [3]; indomethacin 8 mg/kg): 22.3 ± 3.4 mm; mm Ulceration + SEM (rats (Wistar) [3]; indomethacin 10 mg/kg): 23.3 ± 2.6 mm; mm Ulceration + SEM (rats (Wistar) [3]; indomethacin 10 mg/kg, listed as indomethacin in PEG-400): 25 mm
CC(C(=O)O)c1cccc(Oc2ccccc2)c1 (stereo not shown) [fenoprofen]	under four		
